# Patent publication US10638756B2, “Molecules having pesticidal utility, and intermediates, compositions, and processes, related thereto” (Dow AgroSciences LLC, priority 2017, dated 2020)
# How the values were obtained:
# Type in all cases: in vivo
# [1] = system: Green Peach Aphid (Myzus persicae); assay: Bioassay on Green Peach Aphid (GPA), foliar spray on cabbage seedlings; details: 72 h, 200 ppm foliar spray on cabbage seedlings, three days, Abbott corrected % control, read-out: GPA % Control (or Mortality) rating
# Procedure: Certain molecules disclosed in this document were tested against GPA using procedures described in the following example. In the reporting of the results, the “GPA & YFM Rating Table” was used (See Table Section).
# Cabbage seedlings grown in 3-inch pots, with 2-3 small (3-5 cm) true leaves, were used as test substrate. The seedlings were infested with 20-50 GPA (wingless adult and nymph stages) one day prior to chemical application. Four pots with individual seedlings were used for each treatment. Test molecules (2 mg) were dissolved in 2 mL of acetone/methanol (1:1) solvent, forming stock solutions of 1000 ppm test molecule. The stock solutions were diluted 5× with 0.025% Tween 20 in water to obtain the solution at 200 ppm test molecule. A hand-held aspirator-type sprayer was used for spraying a solution to both sides of […] leaves until runoff. Reference plants (solvent check) were sprayed with the diluent only containing 20% by volume of acetone/methanol (1:1) solvent. Treated plants were held in a holding room for three days at approximately 25° C. and ambient relative humidity (RH) prior to grading. Evaluation was conducted by counting the number of live aphids per plant under a microscope. Percent control was measured using Abbott's correction formula (W. S. Abbott, “A Method of Computing the Effectiveness of an Insecticide” J. Econ. Entomol. 18 (1925), pp. 265-267) as follows. Corrected % Control=100*(X−Y)/X where X=No. of live aphids on solvent check plants and Y=No. of live aphids on treated plants. The results are indicated in the table entitled “Table ABC: Biological Results” (See Table Section).
# [2] = system: Cabbage Looper (Trichoplusia ni); assay: Bioassay on Cabbage Looper (CL), 128-well diet tray assay; details: 168 h, 50 μg/cm^2 on artificial diet, second instar larvae, five to seven days, read-out: CL % Control (or Mortality) rating
# How it was run: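 Each of eight wells receives artificial diet treated at 50 μg/cm^2 with the test molecule, then one to five second-instar larvae. Incubation runs five to seven days at 25° C with a 14:10 light-dark cycle under vented covers. Mortality is scored per well as a percentage and averaged.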
# [3] = system: Beet Armyworm (Spodoptera exigua); assay: Bioassay on Beet Armyworm (BAW), 128-well diet tray assay; details: for mortality at 50 µg/cm2: Spodoptera exigua, 168 h, 50 μg/cm^2 on artificial diet, second instar larvae, five to seven days, read-out: BAW % Control (or Mortality) rating
# [4] = system: Yellow Fever Mosquito (Aedes aegypti); details: about 1 day-old larvae, 3 days, scored on mortality
compound,measurement,setting,value
"O=C(NNc1ncccn1)c1ccc(/C(F)=C/C(c2cc(Cl)c(Cl)c(Cl)c2)C(F)(F)F)cc1C(F)(F)F (centres unmarked) [F97, (Z)—N′-(pyrimidin-2-yl)-4-(1,4,4,4-tetrafluoro-3-(3,4,5-trichlorophenyl)but-1-en-1-yl)-2-(trifluoromethyl)benzohydrazide]",mortality at 200 ppm,[1],80 to 100%
same,mortality at 50 µg/cm2,[2],50 to 100%
same,BAW (Table CD-1),[3]; 0.05 μg/cm^2,100
same,BAW (Table CD-1),[3]; 5.0 μg/cm^2,100
same,BAW (Table CD-1),[3]; 50 μg/cm^2,100
same,mortality at 50 µg/cm2,[3],50 to 100%
"O=C(NNc1ncccn1)c1ccc(/C(F)=C/C(c2cc(Cl)c(F)c(Cl)c2)C(F)(F)F)cc1C(F)(F)F (centres unmarked) [F4, (Z)-4-(3-(3,5-Dichloro-4-fluorophenyl)-1,4,4,4-tetrafluorobut-1-en-1-yl)-N′-(pyrimidin-2-yl)-2-(trifluoromethyl)benzohydraziderazide]",mortality at 200 ppm,[1],0 to 80%
same,mortality at 50 µg/cm2,[2],50 to 100%
same,mortality at 50 µg/cm2,[3],50 to 100%
"C#CCN(C(=O)c1ccc(/C(F)=C/C(c2cc(Cl)c(Cl)c(Cl)c2)C(F)(F)F)cc1C(F)(F)F)N(C)c1ncccn1 (centres unmarked) [F180, (Z)—N′-Methyl-N-(prop-2-yn-1-yl)-N′-(pyrimidin-2-yl)-4-(1,4,4,4-tetrafluoro-3-(3,4,5-trichlorophenyl)but-1-en-1-yl)-2-(trifluoromethyl)benzohydrazide]",mortality at 200 ppm,[1],0 to 80%
same,mortality at 50 µg/cm2,[2],50 to 100%
same,YFM % Control (or Mortality) rating,[4],A (80-100)
same,mortality at 50 µg/cm2,[3],50 to 100%
"O=C(NNc1ncc(Cl)cn1)c1ccc(/C(F)=C/C(c2cc(Cl)c(Cl)c(Cl)c2)C(F)(F)F)cc1C(F)(F)F (centres unmarked) [F63, (Z)—N′-(5-Chloropyrimidin-2-yl)-4-(1,4,4,4-tetrafluoro-3-(3,4,5-trichlorophenyl)but-1-en-1-yl)-2-(trifluoromethyl)benzohydrazide]",mortality at 200 ppm,[1],0 to 80%
same,mortality at 50 µg/cm2,[2],50 to 100%
same,YFM % Control (or Mortality) rating,[4],A (80-100)
same,mortality at 50 µg/cm2,[3],50 to 100%
"CN(NC(=O)c1ccc(/C(F)=C/C(c2cc(Cl)c(Cl)c(Cl)c2)C(F)(F)F)cc1C(F)(F)F)c1ncccn1 (centres unmarked) [F71, (Z)—N′-Methyl-N′-(pyrimidin-2-yl)-4-(1,4,4,4-tetrafluoro-3-(3,4,5-trichlorophenyl)but-1-en-1-yl)-2-(trifluoromethyl)benzohydrazide]",mortality at 200 ppm,[1],80 to 100%
same,mortality at 50 µg/cm2,[2],50 to 100%
same,mortality at 50 µg/cm2,[3],50 to 100%
"O=C(Nn1ccnc1)c1ccc(/C(F)=C/C(c2cc(Cl)c(Cl)c(Cl)c2)C(F)(F)F)cc1C(F)(F)F (centres unmarked) [F10, (Z)—N-(1H-Imidazol-1-yl)-4-(1,4,4,4-tetrafluoro-3-(3,4,5-trichlorophenyl)but-1-en-1-yl)-2-(trifluoromethyl)benzamide]",mortality at 200 ppm,[1],0 to 80%
same,mortality at 50 µg/cm2,[2],50 to 100%
same,mortality at 50 µg/cm2,[3],50 to 100%
